Measurements taken from US20250368608A1, “SELECTIVE HDAC6 INHIBITOR” (ROYAL COLLEGE OF SURGEONS IN IRELAND, priority 2021, published 2025).
“Also recorded” adds a separate entry of the source.

Assays:
[1] = tested on: acetylated tubulin; test: Western blot of acetylated tubulin in cells; type: cell-based; settings: increasing doses
Procedure: (§1) Protein samples for Western blot analysis were separated by 12% SDS-PAGE gels. Following separation on the gel, proteins were transferred using electrophoresis onto a nitrocellulose membrane and blocked at room temperature shaking in 5% milk (w/v) in TBS containing 0.5% Tween-20 (TBS-T). Membranes were incubated overnight at 4° C. with primary antibody. HRP tagged secondary antibodies were diluted in TBS-T/5% milk for 1 hr. Antibody reactive bands were detected with LAS-3000, Fujifilm. Fluorescent secondary antibodies were diluted 1:10000 in TBS-T/5% milk for 1 hour. Antibody reactive bands were detected with the Odyssey® infrared imaging system (LI-COR Biosciences). IRDye® 680LT and 800CW-Infrared Dye coupled anti-rabbit or anti-mouse (LI-COR Biosciences).

[2] = tested on: Histone 4 (H4); test: Acetylation of Histone 4 in cells; type: cell-based
Procedure: as §1

[3] = tested on: BT549 cells; test: Migration and invasion assays (Boyden chamber); type: cell-based; settings: BT549, 30 μM
Procedure: (§2) Cell migration and invasion experiments were performed using the Boyden Chamber Assay (Corning, CLS3464). 500,000 cells were seeded in serum free RPMI media (Thermo Fisher Scientific, 118757093) in the upper chamber and RPMI media containing 10% FBS (Sigma, F2442), was placed in the lower chamber. For invasion experiments the upper chamber was coated with Matrigel™ (Corning). […] Following 24 hrs (migration experiments) or 48 hrs (invasion experiments) treatment cells were stained with 0.5% crystal violet.

[4] = tested on: MDA231 cells; test: Migration and invasion assays (Boyden chamber); type: cell-based; settings: MDA231, 30 μM
Procedure: as §2

[5] = tested on: MDA231; test: 3D spheroid formation in Matrigel; type: cell-based; settings: MDA231, 30 μM
Procedure: Individual wells of a 6 well plate was coated with Matrigel™ (Corning) and placed in an incubator at 37° C. for 30 min. 50,000 cells/ml were resuspended in RPMI supplemented with 2% Matrigel™ Cells were placed in Matrigel™ coated wells for 30 min at 37° C., after which RMPI supplemented with 2% Matrigel™ was added to the cultures. […] Cells were maintained in culture for 7 days in an incubator at 37° C., 5% CO2 and cultures imaged every 24 hrs with Nikon ECLIPSE TE300.

[6] = type: in vivo; settings: 50 mg/kg, while on treatment
[7] = tested on: aldolase; test: Aldolase activity assay; type: cell-based
Procedure: (§3) The activity assay was performed as per the manufacturer's instructions (Aldolase: Biovision, K665, GAPDH: Sigma, MAK277). Values were normalized to protein concentrations and fold change was calculated relative to DMSO.

[8] = tested on: GAPDH; test: GAPDH activity assay; type: cell-based
Procedure: as §3

[9] = tested on: aldolase; test: Immunoprecipitation with acetyl beads; type: cell-based; settings: 10 μM, 24 hr treatment
Procedure: Cell lysates were prepared in lysis buffer (50 mM Tris-HCL PH 7.4, 150 mM NACL, 1% Triton x100, 1 mM EDTA and protease inhibitors). Protein was quantified and 500 μg of protein was added to 20 μl of A-agarose beads (Pierce, 20333) and allowed to rotate for 1 hr at 4° C. and 3000 rpm. Proteins were centrifuged for 3 minutes at 3000 rpm at 4° C. Supernatant was added to 500 μl of lysis buffer, […] pan-specific anti-acetylated lysine beads (Immunechem, ICP0388) or control agarose beads, and made up to 1 ml with dH2O. Samples were rotated overnight at 4° C. at 3000 rpm. Samples were washed with lysis buffer and were resuspended in 30 μl of 2×IP Dye with BME and boiled and ran out on 12% SDS-PAGE gel.

[10] = tested on: MCF10a cells; test: Extracellular flux assay (ECAR, glycolysis); type: cell-based; settings: 10 μM, 24 hr
Procedure: (§4) The bioenergetic function of cells in response to drug treatments was determined using a Seahorse Bioscience XF96 Extracellular Flux Analyzer (Seahorse Bioscience). Cells were seeded in specialized V7 Seahorse tissue culture plates (Agilent, 102601-100) for 24 hrs. […] One hr prior to experiment, cells were washed and changed to XF Base medium (Agilent, 10353-100) adjusted to pH 7.4. For OXPHOS experiments medium was supplemented with pyruvate (1 mM), L-glutamine (2 mM) and glucose (10 mM). […] For glycolysis experiments medium was supplemented with L-glutamine (1 mM). […] For all analysis values were normalized to protein concentration before baseline measurements were subtracted. The fold change was calculated relative to DMSO.

[11] = tested on: MDA231 cells; test: Extracellular flux assay (ECAR, glycolysis); type: cell-based; settings: MDA231, 10 μM, 24 hr
Procedure: as §4

[12] = tested on: 4T1 cell line; test: Extracellular flux assay (ECAR, glycolysis); type: cell-based, mouse; settings: 4T1, 24 hrs
Procedure: as §4

[13] = tested on: MDA231 cells; test: U-13C6-glucose stable isotope tracing, GC-MS; type: cell-based; settings: MDA231, 10 μM, 24 hrs
Procedure: Cells were seeded in 12-well tissue culture plates and left to adhere overnight. […] Following treatment, media was removed and cells were washed with 1×PBS before adding basic RPMI (Thermo Fisher Scientific, 11879020) supplemented with dialyzed FBS (Gibico 26400044) and either 10 mM of [U]-^13C6 labelled glucose (Cambridge Isotopes CLM-1396) for 30 minutes or tracing media containing 10 mM 1,2-^13C labelled glucose (Cambridge Isotopes CLM-504) for 12 h. Cellular metabolites were extracted after a brief wash with 0.9% ice-cold saline solution using a methanol/water/chloroform extraction method, as previously described (48).
(§5) Metabolite derivitzation using MOX-tBDMS was conducted as previously described (49).
(§6) Derivatized samples were analyzed by GC-MS using a DB-35MS column (30 m×0.25 mm i.d.×0.25 μm) installed in an Agilent 7890B gas chromatograph (GC) interfaced with an Agilent 5977B mass spectrometer as previously described (50) and corrected for natural abundance using in-house algorithms adapted from (51).

[14] = tested on: MDA231 cells; test: Metabolite secretion, GC-MS; type: cell-based; settings: MDA231, 10 μM, 24 hrs
Procedure: Media was centrifuged at 1,000×g to pellet cell debris and 5 μL of supernatant was extracted in 80% ice-cold methanol mixture containing isotope-labeled internal standards for lactate (Cayman Chemicals CLM-1579), and pyruvate (Cayman Chemicals CLM-2440) and evaporated to dryness.
as §5, §6

[15] = tested on: mitochondrial membrane potential; test: Mitochondrial membrane potential (TMRE); type: cell-based; settings: 10 μM
Procedure: Apoptosis was assessed by Annexin V/propidium iodide (Biolegend, 640906, Sigma P4170) staining using LSRII Biosciences, Facscanto. Cell viability was detected by CellTiter-Glo® (My Bio, G3582) according to the manufacture's protocol. Mitochondrial membrane potential was measured by adding Tetramethylrhodamine, ethyl ester (TMRE) (Biosciences, T669) at 20 nM for 30 minutes at 37° C. and assessed by flow cytometry with FACS CANTO II.

[16] = tested on: BT549 cells; test: Extracellular flux assay (OCR); type: cell-based; settings: BT549, 10 μM
Procedure: as §4

[17] = tested on: MDA-231 cells; test: Extracellular flux assay (OCR); type: cell-based; settings: MDA-231, 10 μM
Procedure: as §4

[18] = tested on: 4T1 tumors; test: Tumor metabolites by GC-MS, 4T1 syngeneic breast cancer model; type: in vivo, mouse; settings: 4T1 model
Procedure: Following 7 or 14 days treatment mice was fasted for 6-8 h prior to euthanasia and tumor harvest. Tumor metabolites were extracted in methanol/water/chloroform using the Qiagen TissueLyser LT, evaporated to dryness and resuspended in 80% methanol. The equivalent volume for 5 mg of tissue was further extracted in 80% ice-cold methanol mixture containing isotope-labeled standards for lactate (Cayman Chemicals CLM-1579), and pyruvate (Cayman Chemicals CLM-2440) and evaporated to dryness.
as §5, §6

[19] = tested on: 4T1 tumors; test: 4T1 syngeneic breast mouse model; settings: 50 mg/kg, two weeks, 4T1 model
[20] = tested on: HDAC proteins (HDAC1-9); test: HDAC inhibitory assay, isozyme panel; settings: in vitro HDAC inhibitor screen
[21] = tested on: MMTV-pyMT tumors; test: MMTV-pyMT genetic breast mouse model; settings: 50 mg/kg, two weeks

In the case of `O=C(CSC1=NC2CCCCC2N1)N1CCOCC1` (stereo not drawn) [BAS-2], the acetylated tubulin level [1] is reported as “increase in the acetylated tubulin”, the “acetylation of Histone 4 (H4)” value [2] is reported as “did not cause an increase in acetylation of Histone 4” and the “cell migration and invasion” value [3] is reported as “significant reduction in both cell migration and invasion”. For the same molecule, the “cell migration and invasion” value [4] was “significant reduction in both cell migration and invasion”, the 3D spheroid formation [5] was “reduction in 3D spheroid formation” and the “toxicity as assessed by weight of the mice” value [6] was “did not detect any overt evidence of toxicity”. For the same molecule, the aldolase enzymatic activity ([7]; BT-549 cells) was “dose-dependent significant reduction in aldolase enzymatic activity”, the aldolase enzymatic activity ([7]; MDA231 cells, 24 hrs) was “dose-dependent significant reduction in aldolase enzymatic activity” and the GAPDH activity ([8]; BT-549) was “dose dependent reduction in GAPDH activity”. For the same molecule, the GAPDH activity ([8]; MDA-231) was “dose dependent reduction in GAPDH activity”, the acetylation of aldolase [9] was “increased the acetylation of aldolase” and the “glycolysis and glycolytic capacity (ECAR)” value [10] was “did not affect the glycolysis or glycolytic capacity”. The “glycolytic capacity (ECAR)” value [11] was “reduced the glycolytic capacity”, the “glycolysis and glycolytic flux” value [12] was “decrease in glycolysis and glycolytic flux” and the “carbon incorporation from glucose into PEP, 3PG, lactate and pyruvate” value [13] was “significant reduction in carbon incorporation from glucose”. For the same molecule, the “secretion of lactate and pyruvate” value [14] was “significant reduction in the secretion of lactate and pyruvate”, the mitochondrial membrane potential [15] was “no loss of mitochondrial membrane potential” and the “OCR, basal respiration and ATP production” value [16] was “did not observe any significant changes in OCR”. For the same molecule, the “OCR, basal respiration and ATP production” value [17] was “did not observe any significant changes in OCR”, the intratumoral lactate [18] was “trend towards decreased intratumoral lactate” and the intratumoral pyruvate levels [18] was “significant reduction in intratumoral pyruvate levels”. For the same molecule, the “tumor weight and tumor volume” value [19] was “reduction in tumor weight and tumor volume; also recorded: reduce tumor volume and weight”, the HDAC isozymes inhibited [20] was “inhibited only the isozyme HDAC6” and the tumor volume [21] was “reduction in tumor volume”.
